Literature values as cited in patent US8492081B2, “Aldehyde-fixed, dried platelets with covalently attached exogenous active agent and method of making thereof” (The University of North Carolina at Chapel Hill, priority 2003, dated 2013).

Assays:
[1] = Crotty et al., 2002
[2] = tested on: Punta Toro virus; conditions: free ribavirin, not loaded on platelets; previously shown

## NC(=O)c1ncn([C@@H]2O[C@H](CO)[C@@H](O)[C@H]2O)n1 [ribavirin]
[1]
  concentration range that exhibits antiviral activity in tissue culture: 10 to 100 µM
[2]
  concentration range shown to inhibit Punta Toro virus replication in vitro: 4-10 micrograms per ml
